Measurements as given in patent publication US12302903B2, “Oxazepinone derivative, agricultural/horticultural insecticide containing the same, and method for using the same” (priority 2019, dated 2025).

tested on: Small Brown Planthopper (Laodelphax Striatellus); experiment: Test of insecticidal efficacy against Small Brown Planthopper (rice seedling dip); format: in vivo; conditions: 192 h, read-out: corrected insect mortality judgement against small brown planthopper
Procedure: Test Example 2. Test of Insecticidal Efficacy Against Small Brown Planthopper (Laodelphax Striatellus)
The compound or salt thereof expressed by General Formula (1) according to the present invention was dispersed in water and the dispersion was diluted to 50 ppm in the form of a reagent, after which rice plants raised from seeds (variety: Nipponbare) were soaked in the reagent for 30 seconds and dried under wind, and then placed in glass test tubes, each of which was inoculated with 10 third-instar larvae of small brown planthoppers and sealed with cotton, and eight days after the inoculation, the number of live insects and that of dead insects were examined and the corrected insect mortality was calculated based on the formula below, and judgement was made according to the criteria below.
[formula] [formula] Criteria A—Corrected insect mortality: 100% B—Corrected insect mortality: 99% to 90% C—Corrected insect mortality: 89% to 80% D—Corrected insect mortality: 79% to 50%

SMILES | mortality at 50 ppm [%]
COCN1C(=O)c2nn(-c3cccnc3)cc2Oc2ncccc21 [Compound No. 1-1, 9-(methoxymethyl)-2-(pyridin-3-yl)-2H-pyrazolo[3,4-f]pyrido[2,3-b][1,4]oxazepine-10(9H)-one] | 100

tested on: zebrafish embryo; experiment: Teratogenicity test using zebrafish embryo; format: in vivo; conditions: zebrafish embryos exposed from 6 hours after fertilization, cultured at 28° C. for five days, 0.1% dimethyl sulfoxide
Procedure: Test Example 4. Teratogenicity Test Using Zebrafish Embryo
Fertilized eggs obtained by mating zebrafish were cultured in a medium (0.3× Danieau's solution) at 28° C. until 6 hours after fertilization. Thereafter, the embryo was transferred to a medium into which the compound expressed by General Formula (1) according to the present invention dissolved in dimethyl sulfoxide was added, and cultured at 28° C. for five days. The concentration of dimethyl sulfoxide in the medium was 0.1%. 12 embryos were tested in each test concentration of the present invention.
Observation sites: notochord, tail, somite, eye, otolith, jaw, heart, blood vessel, abdomen, fin, etc.
From the results of these observations, the presence or absence of teratogenicity risk of the compound expressed by General Formula (1) according to the present invention and six compounds (Compound Nos. 4-10, 1-67, 1-1, 8-125, and 8-22, and a compound encompassed by the claims of Patent Literature 1 (Comparative Compound 4)) disclosed in the aforementioned Patent Literature 1 as the comparative compounds was determined.
It is noted that the teratogenicity test using zebrafish embryo is known to have good high predictivity to the teratogenicity test using the mammals (Reference Literature: Reproductive Toxicology 2012, (33), 155-164).

SMILES | Teratogenicity risk
COCN1C(=O)c2nn(-c3cccnc3)cc2Oc2ncccc21 [Compound No. 1-1, 9-(methoxymethyl)-2-(pyridin-3-yl)-2H-pyrazolo[3,4-f]pyrido[2,3-b][1,4]oxazepine-10(9H)-one] | No
CN1C(=O)c2nn(-c3cccnc3)cc2Oc2ncc(C(F)(F)F)cc21 [Comparative Compound 1] | Yes
COCN1C(=O)c2nn(-c3cccnc3)cc2Oc2c(F)cccc21 [Comparative Compound 6] | Yes
CN1C(=O)c2nn(-c3cccnc3)cc2Oc2cc(OC(F)(F)F)ccc21 [Comparative Compound 5] | Yes
COCN1C(=O)c2nn(-c3cccnc3)cc2Oc2ccccc21 [Comparative Compound 2] | Yes
O=C1Nc2ccccc2Oc2cn(-c3cccnc3)nc21 [Comparative Compound 3] | Yes
COCN1C(=O)c2nn(-c3cccnc3)cc2Oc2cc(OC(F)(F)F)ccc21 [Comparative Compound 4] | Yes
